Measured values reported in patent publication US8148373B2, “Compounds” (AstraZeneca AB, priority 2008, dated 2012).
Structures can show the parent of a compound that is named as a salt.

Key:
[1] = target: T1, Adrenergic β2 (H292 cells) (Homo sapiens, UniProt P07550); assay: Assay for Adrenergic β2 Mediated cAMP Production (concentration response, AlphaScreen cAMP detection); type: cell-based; conditions: for EC50: cAMP production, 60 minutes at room temperature, 300 μM rolipram, read-out: β2 pEC50 (converted); for β2 Intrinsic activity: fraction relative to the maximum activity determined for formoterol
T1 construct: endogenous in cells; host or cells: H292 cells
Description: Assay for Adrenergic β2 Mediated Camp Production
H292 cells are grown in 225 cm2 flasks incubator at 37° C., 5% CO2 in RPMI medium containing 10% (v/v) FBS (foetal bovine serum) and 2 mM L-glutamine.
Adherent H292 cells are removed from tissue culture flasks by treatment with Accutase™ cell detachment solution for 15 minutes. Flasks are incubated for 15 minutes in a humidified incubator at 37° C., 5% CO2. Detached cells are re-suspended in RPMI media (containing 10% (v/v) FBS and 2 mM L-glutamine) at 0.1×10^6 cells per mL. 10000 cells in 100 μL are added to each well of a tissue-culture-treated 96-well plate and the cells incubated overnight in a humidified incubator at 37° C., 5% CO2. The culture media is removed and cells are washed twice with 100 μL assay buffer and replaced with 50 μL assay buffer (HBSS solution containing 10 mM HEPES pH7.4 and 5 mM glucose). Cells are rested at room temperature for 20 minutes after which time 25 μL of rolipram (1.2 mM made up in assay buffer containing 2.4% (v/v) dimethylsulphoxide) is added. Cells are incubated with rolipram for 10 minutes after which time test compounds are added and the cells are incubated for 60 minutes at room temperature. The final rolipram concentration in the assay is 300 μM and final vehicle concentration is 1% (v/v) dimethylsulphoxide. The reaction is stopped by removing supernatants, washing once with 100 μL assay buffer and replacing with 50 μL lysis buffer. The cell monolayer is frozen at −80° C. for 30 minutes (or overnight).
AlphaScreen™ cAMP Detection
The concentration of cAMP (cyclic adenosine monophosphate) in the cell lysate is determined using AlphaScreen™ methodology. The frozen cell plate is thawed for 20 minutes on a plate shaker then 10 μL of the cell lysate is transferred to a 96-well white plate. 40 μL of mixed AlphaScreen™ detection beads pre-incubated with biotinylated cAMP, is added to each well and the plate incubated at room temperature for 3 hours in the dark. The AlphaScreen™ signal is measured using an EnVision spectrophotometer (Perkin-Elmer Inc.) with the recommended manufacturer's settings. cAMP concentrations are determined by reference to a calibration curve determined in the same experiment using standard cAMP concentrations. Concentration response curves for agonists are constructed and data is fitted to a four parameter logistic equation to determine both the pEC50 and Intrinsic Activity. Intrinsic Activity is expressed as a fraction relative to the maximum activity determined for formoterol in each experiment.

[2] = target: T2, human muscarinic acetylcholine M3 receptor (M3-ACh) (Homo sapiens, UniProt P20309); assay: Muscarinic 3 Receptor Binding Assay ([3H]NMS competition, SPA); conditions: for IC50: [3H]NMS 0.1 nM, CHO-K1 cell membranes, 16 hours at room temperature, read-out: M3 pIC50 (converted)
T2 construct: expressed in transfected cells; host or cells: CHO-K1 (Chinese Hamster Ovary) cell membranes
Description: Muscarinic 3 Receptor Binding Assay
The affinity (pIC50) of compounds binding to the M3 receptor is determined by competition binding of [^3H]N-methyl scopolamine (NMS) to CHO-K1 (Chinese Hamster Ovary) cell membranes expressing the human muscarinic acetylcholine M3 receptor (M3-ACh) in a scintillation proximity assay (SPA) format.
SPA beads are precoated with membranes and then incubated at 2 mg of beads per well with serial dilutions of compounds of the invention, [^3H]NMS at 0.1 nM, quarter Kd (experimentally determined dissociation constant) and assay buffer (20 mM HEPES pH 7.4 containing 5 mM MgCl2). The assay is conducted in a final volume of 200 μL, in the presence of 1% (v/v) dimethyl sulphoxide (DMSO). Total binding of [^3H]NMS is determined in the absence of competing compound and non-specific binding of [^3H]NMS is determined in the presence of 1 μM atropine. The plates are incubated for 16 hours at room temperature and then read on Wallac Microbeta™ using a normalised ^3H protocol. The pIC50, defined as the negative logarithm of the molar concentration of compound required for 50% reduction in specific [^3H]-NMS binding, is determined.

T1 sequence (P07550 whole entry): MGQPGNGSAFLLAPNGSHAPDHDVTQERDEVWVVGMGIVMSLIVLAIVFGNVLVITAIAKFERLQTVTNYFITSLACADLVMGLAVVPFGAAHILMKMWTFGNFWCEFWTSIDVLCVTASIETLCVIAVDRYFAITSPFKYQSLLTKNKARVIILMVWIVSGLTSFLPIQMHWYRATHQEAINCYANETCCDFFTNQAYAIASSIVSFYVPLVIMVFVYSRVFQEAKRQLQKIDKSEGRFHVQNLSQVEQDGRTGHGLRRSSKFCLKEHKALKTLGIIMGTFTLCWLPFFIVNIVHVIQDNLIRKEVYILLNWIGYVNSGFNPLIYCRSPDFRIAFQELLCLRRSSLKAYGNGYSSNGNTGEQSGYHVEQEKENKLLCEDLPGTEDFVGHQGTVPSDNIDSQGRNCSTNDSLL
T2 sequence (P20309 whole entry): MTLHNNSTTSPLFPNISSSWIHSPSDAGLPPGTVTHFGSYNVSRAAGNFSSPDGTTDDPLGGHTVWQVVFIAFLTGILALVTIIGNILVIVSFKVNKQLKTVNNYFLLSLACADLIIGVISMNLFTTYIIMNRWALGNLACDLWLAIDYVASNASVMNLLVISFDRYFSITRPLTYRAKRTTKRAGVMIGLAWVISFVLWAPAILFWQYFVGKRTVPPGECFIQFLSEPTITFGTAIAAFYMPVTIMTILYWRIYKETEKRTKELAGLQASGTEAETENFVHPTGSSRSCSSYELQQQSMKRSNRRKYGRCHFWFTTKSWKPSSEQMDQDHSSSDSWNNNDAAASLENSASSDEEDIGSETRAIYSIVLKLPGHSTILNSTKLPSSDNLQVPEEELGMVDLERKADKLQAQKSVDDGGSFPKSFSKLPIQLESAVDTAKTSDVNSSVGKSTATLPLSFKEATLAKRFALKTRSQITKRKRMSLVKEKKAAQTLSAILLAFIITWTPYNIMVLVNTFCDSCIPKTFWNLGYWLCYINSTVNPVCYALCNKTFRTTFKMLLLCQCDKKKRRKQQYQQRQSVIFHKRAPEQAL

SMILES | EC50 [1] | β2 Intrinsic activity [1] | IC50 [2] | inhibition at 1 µM ([2]; read-out: M3 inhibtion at 1 μM (printed in the M3 pIC50 column))
CC(C)c1ncc(C(=O)N2CCOC3(CCN(Cc4cc(F)cc(CCNC[C@H](O)c5ccc(O)c6[nH]c(=O)sc56)c4)CC3)C2)s1 [Example 55, (R)-7-(2-(3-Fluoro-5-((4-(2-isopropylthiazole-5-carbonyl)-1-oxa-4,9-diazaspiro[5.5]undecan-9-yl)methyl)phenethylamino)-1-hydroxyethyl)-4-hydroxybenzo[d]thiazol-2(3H)-one ditrifluoroacetate] | 6.31 nM | 1 | 63.1 nM | –
O=C(c1csc(-c2ccccc2)n1)N1CCOC2(CCN(CCCCCCCCCNC[C@H](O)c3ccc(O)c4[nH]c(=O)sc34)CC2)C1 [Example 113, (R)-4-Hydroxy-7-(1-hydroxy-2-(9-(4-(2-phenylthiazole-4-carbonyl)-1-oxa-4,9-diazaspiro[5.5]undecan-9-yl)nonylamino)ethyl)benzo[d]thiazol-2(3H)-one formate] | 20 nM | 0.8 | 20 nM | –
CC(C)c1nc(C(=O)N2CCOC3(CCN(Cc4cccc(C(C)(C)CNC[C@H](O)c5ccc(O)c6[nH]c(=O)ccc56)c4F)CC3)C2)cs1 [Example 92, (R)-5-(2-(2-(2-Fluoro-3-((4-(2-isopropylthiazole-4-carbonyl)-1-oxa-4,9-diazaspiro[5.5]undecan-9-yl)methyl)phenyl)-2-methylpropylamino)-1-hydroxyethyl)-8-hydroxyquinolin-2(1H)-one ditrifluoroacetate] | 794 nM | 0.9 | 126 nM | –
Cc1nc(C(=O)N2CCOC3(CCN(Cc4ccc(CCNC[C@H](O)c5ccc(O)c6[nH]c(=O)ccc56)cc4)CC3)C2)cs1 [Example 17, (R)-8-Hydroxy-5-(1-hydroxy-2-(4-((4-(2-methylthiazole-4-carbonyl)-1-oxa-4,9-diazaspiro[5.5]undecan-9-yl)methyl)phenethylamino)ethyl)quinolin-2(1H)-one ditrifluoroacetate] | 50.1 nM | 0.5 | 50.1 nM | –
CCC(CC)c1nc(C(=O)N2CCOC3(CCN(Cc4cccc(CCNC[C@H](O)c5ccc(O)c6[nH]c(=O)ccc56)c4)CC3)C2)cs1 [Example 274, (R)-8-Hydroxy-5-(1-hydroxy-2-(3-((4-(2-(pentan-3-yl)thiazole-4-carbonyl)-1-oxa-4,9-diazaspiro[5.5]undecan-9-yl)methyl)phenethylamino)ethyl)quinolin-2(1H)-one ditrifluoroacetate] | 25.1 nM | 1.0 | 2.51 nM | –
CC(CCCCCCCN1CCC2(CC1)CN(C(=O)c1csc(C(C)C)n1)CCO2)CNC[C@H](O)c1ccc(O)c2[nH]c(=O)sc12 (stereo partly drawn) [Example 283, 4-Hydroxy-7-((1R)-1-hydroxy-2-(9-(4-(2-isopropylthiazole-4-carbonyl)-1-oxa-4,9-diazaspiro[5.5]undecan-9-yl)-2-methylnonylamino)ethyl)benzo[d]thiazol-2(3H)-one formate] | 79.4 nM | 1.1 | 1.26 nM | –
Cc1nc(C(=O)N2CC(C)(C)OC3(CCN(Cc4cccc(CCNC[C@H](O)c5ccc(O)c6[nH]c(=O)sc56)c4)CC3)C2)cs1 [Example 271, (R)-7-(2-(3-((2,2-Dimethyl-4-(2-methylthiazole-4-carbonyl)-1-oxa-4,9-diazaspiro[5.5]undecan-9-yl)methyl)phenethylamino)-1-hydroxyethyl)-4-hydroxybenzo[d]thiazol-2(3H)-one ditrifluoroacetate] | 6.31 nM | 1 | – | 30%

Continued, values first:

EC50 [1] | β2 Intrinsic activity [1] | IC50 [2] | inhibition at 1 µM ([2]; read-out: M3 inhibtion at 1 μM (printed in the M3 pIC50 column)) | SMILES
15.8 nM | 0.9 | 20 nM | – | Cc1sc(C(C)C)nc1C(=O)N1CCOC2(CCN(Cc3cccc(CCNC[C@H](O)c4ccc(O)c5[nH]c(=O)sc45)c3F)CC2)C1 [Example 69, (R)-7-(2-(2-Fluoro-3-((4-(2-isopropyl-5-methylthiazole-4-carbonyl)-1-oxa-4,9-diazaspiro[5.5]undecan-9-yl)methyl)phenethylamino)-1-hydroxyethyl)-4-hydroxybenzo[d]thiazol-2(3H)-one ditrifluoroacetate]
63.1 nM | 0.9 | 5.01 nM | – | CC(C)c1nc(C(=O)N2CCOC3(CCN(Cc4cc(CCNC[C@H](O)c5ccc(O)c6[nH]c(=O)sc56)ccc4Cl)CC3)C2)cs1 [Example 61, (R)-7-(2-(4-Chloro-3-((4-(2-isopropylthiazole-4-carbonyl)-1-oxa-4,9-diazaspiro[5.5]undecan-9-yl)methyl)phenethylamino)-1-hydroxyethyl)-4-hydroxybenzo[d]thiazol-2(3H)-one ditrifluoroacetate]
20 nM | 1 | 7.94 nM | – | CC(C)c1cc(C(=O)N2CCOC3(CCN(Cc4cc(CCNC[C@H](O)c5ccc(O)c6[nH]c(=O)sc56)cs4)CC3)C2)cs1 [Example 264, (R)-4-Hydroxy-7-(1-hydroxy-2-(2-(5-((4-(5-isopropylthiophene-3-carbonyl)-1-oxa-4,9-diazaspiro[5.5]undecan-9-yl)methyl)thiophen-3-yl)ethylamino)ethyl)benzo[d]thiazol-2(3H)-one ditrifluoroacetate]
15.8 nM | 0.9 | 0.501 nM | – | CC(C)c1nc(C(=O)N2CCOC3(CCN(Cc4ccc(F)c(CCNC[C@H](O)c5ccc(O)c6[nH]c(=O)sc56)c4)CC3)C2)cs1 [Example 47, (R)-7-(2-(2-Fluoro-5-((4-(2-isopropylthiazole-4-carbonyl)-1-oxa-4,9-diazaspiro[5.5]undecan-9-yl)methyl)phenethylamino)-1-hydroxyethyl)-4-hydroxybenzo[d]thiazol-2(3H)-one ditrifluoroacetate]
6.31 nM | 0.8 | 25.1 nM | – | O=C(c1ccc2sccc2c1)N1CCOC2(CCN(Cc3cccc(CCNC[C@H](O)c4ccc(O)c5[nH]c(=O)sc45)c3F)CC2)C1 [Example 68, (R)-7-(2-(3-((4-(Benzo[b]thiophene-5-carbonyl)-1-oxa-4,9-diazaspiro[5.5]undecan-9-yl)methyl)-2-fluorophenethylamino)-1-hydroxyethyl)-4-hydroxybenzo[d]thiazol-2(3H)-one ditrifluoroacetate]
12.6 nM | 1 | 25.1 nM | – | Cc1ccc(C(=O)N2CCOC3(CCN(Cc4ccc(F)c(CCNC[C@H](O)c5ccc(O)c6[nH]c(=O)ccc56)c4F)CC3)C2)s1 [Example 35, (R)-5-(2-(2,6-Difluoro-3-((4-(5-methylthiophene-2-carbonyl)-1-oxa-4,9-diazaspiro[5.5]undecan-9-yl)methyl)phenethylamino)-1-hydroxyethyl)-8-hydroxyquinolin-2(1H)-one ditrifluoroacetate]
7.94 nM | 0.7 | 6.31 nM | – | CC(C)c1nc(C(=O)N2CCOC3(CCN(Cc4cccc(CCNC[C@H](O)c5ccc(O)c6[nH]c(=O)ccc56)c4Cl)CC3)C2)cs1 [Example 81, (R)-5-(2-(2-Chloro-3-((4-(2-isopropylthiazole-4-carbonyl)-1-oxa-4,9-diazaspiro[5.5]undecan-9-yl)methyl)phenethylamino)-1-hydroxyethyl)-8-hydroxyquinolin-2(1H)-one ditrifluoroacetate]
